Experiments:
SCD1 = target: T1, SCD1 (Homo sapiens, UniProt O00767); test: Growth inhibition of humanized yeast strain expressing SCD1 as sole desaturase; type: cell-based; settings: humanized yeast strain, 40 h
T1 construct: host or cells: S. cerevisiae ole1Δ strain (W303 pdr1Δ pdr3Δ background), plasmid pRS316 with TDH3 promoter and CYC1 terminator
T1 sequence (O00767 1-359): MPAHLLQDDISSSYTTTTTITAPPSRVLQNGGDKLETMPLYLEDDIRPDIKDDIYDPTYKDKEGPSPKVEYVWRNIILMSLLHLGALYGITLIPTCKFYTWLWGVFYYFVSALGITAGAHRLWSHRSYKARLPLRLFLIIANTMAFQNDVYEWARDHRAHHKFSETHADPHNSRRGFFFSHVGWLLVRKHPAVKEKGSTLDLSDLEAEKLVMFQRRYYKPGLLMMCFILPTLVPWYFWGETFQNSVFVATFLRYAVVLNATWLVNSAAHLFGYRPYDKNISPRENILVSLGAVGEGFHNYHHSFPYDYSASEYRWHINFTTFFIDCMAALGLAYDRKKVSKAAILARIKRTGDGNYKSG
Procedure, shortened: (§1)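 ole1Δ yeast (W303 pdr1Δ pdr3Δ background) carrying plasmid-borne Ole1, SCD1 or SCD5, grown in uracil-free media; cultures pre-grown in raffinose, seeded at 2× density 0.02 in galactose media with compound. Growth read as OD600 after 24 h at 30° C. for Ole1, 40 h for SCD1/SCD5.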

SCD5 = target: T2, SCD5 (Homo sapiens, UniProt Q86SK9); test: Growth inhibition of humanized yeast strain expressing SCD5 as sole desaturase; type: cell-based; settings: humanized yeast strain, 40 h
T2 construct: host or cells: S. cerevisiae ole1Δ strain (W303 pdr1Δ pdr3Δ background), plasmid pRS316 with TDH3 promoter and CYC1 terminator
T2 sequence (Q86SK9 1-330): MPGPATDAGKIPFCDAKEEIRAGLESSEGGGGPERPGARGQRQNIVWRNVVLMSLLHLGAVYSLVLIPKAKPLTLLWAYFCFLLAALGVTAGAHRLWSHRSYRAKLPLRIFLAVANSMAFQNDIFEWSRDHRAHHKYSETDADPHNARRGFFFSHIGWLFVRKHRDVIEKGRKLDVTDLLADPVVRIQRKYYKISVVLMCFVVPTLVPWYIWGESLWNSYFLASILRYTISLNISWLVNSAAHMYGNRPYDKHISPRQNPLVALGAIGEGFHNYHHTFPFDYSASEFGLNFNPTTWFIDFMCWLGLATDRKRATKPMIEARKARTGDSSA
Procedure, shortened: as §1

Compound	IC50 (SCD1)	IC50 (SCD5)
O=C(C1CC1)N1CCC(c2noc(-c3cc(F)c4cnn(C5COC5)c4c3)n2)CC1 [Compound 1067]	> 45 µM	0.00498 µM
CC(C)C(=O)N1CCC(c2noc(-c3cc(F)c4cnn(C5COC5)c4c3)n2)CC1 [Compound 1068]	> 45 µM	0.00375 µM
CC1(OC(=O)N2CCC(c3noc(-c4cc(F)c5cnn(C6COC6)c5c4)n3)CC2)CC1 [Compound 1069]	> 45 µM	0.000862 µM
COC(=O)N1CCC(c2noc(-c3cc(C)c4cnn(C5COC5)c4c3)n2)CC1 [Compound 1070]	> 45 µM	0.081 µM
O=C(OC1CC1)N1CCC(c2noc(-c3cc(F)c4cnn(C5COC5)c4c3)n2)CC1 [Compound 1071]	> 45 µM	0.00303 µM
CCC(=O)N1CCC(c2noc(-c3cc(F)c4cnn(C5COC5)c4c3)n2)CC1 [Compound 1072]	> 45 µM	0.021 µM
COC(=O)N1CCC(c2noc(-c3cc(F)c4cnn(C5CCOC5)c4c3)n2)CC1 (centres unmarked) [Compound 1073]	8.36 µM	0.00252 µM
CC(C)(C)OC(=O)N1CC2(C1)CN(c1noc(-c3ccc4cnn(C5COC5)c4c3)n1)C2 [Compound 1074]	5.43 µM	1.96 µM
CC(C)(C)OC(=O)N1CCC(c2noc(-c3cc(F)c4cnn(C5CCOC5)c4c3)n2)CC1 (centres unmarked) [Compound 1075]	4.4 µM	0.01 µM
COc1cc(-c2nc(C3CCN(C(=O)OC(C)(C)C)CC3)no2)cc2c1cnn2C1COC1 [Compound 1076]	> 45 µM	1.03 µM
COC(=O)N1CCC(c2noc(-c3ccc4cnn(C5CCS(=O)(=O)C5)c4c3)n2)CC1 (centres unmarked) [Compound 1077]	> 45 µM	0.3 µM
COC(=O)N1CCC(c2noc(-c3ccc4cnn(C5CCC(F)(F)C5)c4c3)n2)CC1 (centres unmarked) [Compound 1078]	> 45 µM	0.033 µM
O=C(N1CCC(c2noc(-c3cccc(N4CCOCC4)c3)n2)CC1)C1(F)CC1 [Compound 1080]	> 45 µM	0.501 µM
COC(=O)N1CCC(c2noc(-c3ccnc(CC4CC4)c3)n2)CC1 [Compound 1081]	> 45 µM	2.43 µM
CC(C)(C)OC(=O)N1CCC(c2noc(-c3ccnc(CC4CC4)c3)n2)CC1 [Compound 1082]	> 45 µM	0.359 µM
O=C(OC1CC1)N1CCN(c2noc(-c3ccc4cnn(C5COC5)c4c3)n2)CC(F)(F)C1 [Compound 1083]	> 45 µM	0.033 µM
O=C(OC1CCC1)N1CCC(c2nnc(-c3ccc4cnn(C5CCOC5)c4c3)o2)CC1 (centres unmarked) [Compound 1084]	> 45 µM	0.027 µM
COC(=O)N1CCC(c2noc(-c3cc(C#N)c4cnn(C5COC5)c4c3)n2)CC1 [Compound 1085]	> 45 µM	0.532 µM
CC(C)(C)OC(=O)N1CCC(c2noc(-c3cc(F)cc(N4CCOCC4)c3)n2)CC1 [Compound 1086]	> 45 µM	0.019 µM
O=C(N1CCC(c2noc(-c3ccnc(C4CCOC4)c3)n2)CC1)C1(F)CC1 (centres unmarked) [Compound 1087]	> 45 µM	0.041 µM

Compound	IC50 (SCD1)	IC50 (SCD5)
COC(=O)N1CCC(c2cc(-c3cc4c(cn3)cnn4C(C)C)no2)CC1 [Compound 1088]	> 45 µM	2.52 µM
CCC(=O)N1CCC(c2cc(-c3cc4c(cn3)cnn4C(C)C)no2)CC1 [Compound 1089]	> 45 µM	4.68 µM
CC(C)C(=O)N1CCC(c2noc(-c3ccnc(C4CCOC4)c3)n2)CC1 (centres unmarked) [Compound 1090]	> 45 µM	0.54 µM
CC(N1CCC(c2nc(-c3ccc4cnn(C5COC5)c4c3)no2)CC1)C(F)(F)F (centres unmarked) [Compound 1091]	> 45 µM	3.62 µM
CC(C)(C)OC(=O)N1CCC(c2noc(-c3ccc4cnn([C@@H]5CCOC5)c4c3)n2)CC1 [Compound 1092]	32.3 µM	0.01 µM
O=C(C1CCC1)N1CCC(c2noc(-c3ccc4cnn([C@@H]5CCOC5)c4c3)n2)CC1 [Compound 1093]	> 45 µM	0.00253 µM
COC(=O)N1CCC(c2noc(-c3ccc4cnn(C5COC(C)(C)C5)c4c3)n2)CC1 (centres unmarked) [Compound 1094]	> 45 µM	17.4 µM
COC(=O)N1CCC(c2noc(-c3ccc4cn(C5COC(C)(C)C5)nc4c3)n2)CC1 (centres unmarked) [Compound 1095]	> 45 µM	11.1 µM
O=C(N1CCC(c2noc(-c3ccc4cnn([C@@H]5CCOC5)c4c3)n2)CC1)C1(F)CC1 [Compound 1096]	> 45 µM	0.00101 µM
O=C(N1CCC(c2noc(-c3ccnc(C4CCOC4)c3)n2)CC1)C1(F)CCC1 (centres unmarked) [Compound 1097]	> 45 µM	0.02 µM
O=C(OC1CC1)N1CCC(c2noc(-c3ccnc(C4CCOC4)c3)n2)CC1 (centres unmarked) [Compound 1098]	> 45 µM	0.062 µM
O=C(c1ccccc1F)N1CCC(c2noc(-c3ccnc(C4CCOC4)c3)n2)CC1 (centres unmarked) [Compound 1099]	> 45 µM	1.88 µM
O=C(CC1CC1)N1CCC(c2noc(-c3ccnc(C4CCOC4)c3)n2)CC1 (centres unmarked) [Compound 1100]	> 45 µM	0.738 µM
COC(=O)N1CCC(c2noc(-c3ccc4cnn(C5CCN(C)C5=O)c4c3)n2)CC1 (centres unmarked) [Compound 1101]	27.2 µM	16.6 µM
COC(=O)N1CCC(c2noc(-c3ccc4cn(C5CCN(C)C5=O)nc4c3)n2)CC1 (centres unmarked) [Compound 1102]	> 45 µM	> 45 µM
O=C(C1CCC1)N1CCC(c2noc(-c3cccc(N4CCOCC4)n3)n2)CC1 [Compound 1103]	> 45 µM	23.4 µM
O=C(CC1CC1)N1CCC(c2noc(-c3ccc4cnn([C@@H]5CCOC5)c4c3)n2)CC1 [Compound 1104]	> 45 µM	0.01 µM
O=C(C1CCC1)N1CCC(c2noc(-c3ccnc(N4CCOCC4)c3)n2)CC1 [Compound 1105]	> 45 µM	0.549 µM
COC(=O)N1CCC(c2noc(-c3ccnc(N4CCOCC4)c3)n2)CC1 [Compound 1106]	> 45 µM	2.96 µM
CC(C)(C)OC(=O)N1CCC(c2cc(-c3cc4c(cn3)cnn4C3COC3)on2)CC1 [Compound 1107]	> 45 µM	0.01 µM

Compound	IC50 (SCD1)	IC50 (SCD5)
CC(C)n1ncc2ccc(-c3noc(N4CCN5C(=O)N(C)CC5C4)n3)cc21 (centres unmarked) [Compound 1108]	> 45 µM	> 45 µM
O=C(C1CCC1)N1CCC(c2cc(-c3cc4c(cn3)cnn4C3COC3)on2)CC1 [Compound 1109]	> 45 µM	0.05 µM
O=C(N1CCC(c2cc(-c3cc4c(cn3)cnn4C3COC3)on2)CC1)C1(F)CC1 [Compound 1110]	> 45 µM	0.01 µM
COC(=O)N1CCC(c2cc(-c3cc4c(cn3)cnn4C3COC3)on2)CC1 [Compound 1111]	> 45 µM	0.179 µM
CC(C)C(=O)N1CCC(c2noc(-c3ccc4cnn(C5COC5)c4c3F)n2)CC1 [Compound 1112]	> 45 µM	0.193 µM
CC(C)(C)OC(=O)N1CCC(c2noc(-c3ccc(=O)n(C4COC4)c3)n2)CC1 [Compound 1113]	> 45 µM	0.494 µM
CC(C)(C)OC(=O)N1CCC(c2noc(-c3ccc(=O)n(C4CCOC4)c3)n2)CC1 (centres unmarked) [Compound 1114]	> 45 µM	0.116 µM
O=C(C1CC1)N1CCC(c2noc(-c3ccnc(NC4COC4)c3)n2)CC1 [Compound 1115]	> 45 µM	10.6 µM
O=C(N1CCC(c2noc(-c3ccnc(NC4COC4)c3)n2)CC1)C1(F)CC1 [Compound 1116]	> 45 µM	1.41 µM
O=C(C1CC1)N1CCN(c2noc(-c3ccnc(NC4COC4)c3)n2)CC1 [Compound 1117]	> 45 µM	> 45 µM
O=C(C1CC1)N1CCN(c2noc(-c3ccnc(Cl)c3)n2)CC1 [Compound 1118]	> 45 µM	> 45 µM
CC(C)C(=O)N1CCN(c2noc(-c3ccnc(Cl)c3)n2)CC1 [Compound 1119]	> 45 µM	> 45 µM
O=C(N1CCN(c2noc(-c3ccnc(Cl)c3)n2)CC1)C1(F)CC1 [Compound 1120]	> 45 µM	32.8 µM
CC(C)(C)OC(=O)N1CCC(c2noc(-c3ccn(C4COC4)c(=O)c3)n2)CC1 [Compound 1121]	> 45 µM	15.5 µM
O=C(N1CCC(c2noc(-c3ccnc(Cl)c3)n2)CC1)C1(F)CC1 [Compound 1122]	> 45 µM	13.2 µM
O=C(C1CC1)N1CCC(c2noc(-c3ccnc(Cl)c3)n2)CC1 [Compound 1123]	> 45 µM	6.64 µM
CC(C)C(=O)N1CCC(c2nc(-c3ccnc(F)c3)no2)CC1 [Compound 1124]	> 45 µM	> 45 µM
CN(c1cc(-c2nc(C3CCN(C(=O)C4CC4)CC3)no2)ccn1)C1COC1 [Compound 1125]	> 45 µM	0.523 µM

From patent US11873298B2, “Compounds and uses thereof” (JANSSEN PHARMACEUTICA NV, priority 2017, dated 2024)
